We go through one compound from article PMC9740789, “Investigation of In Vitro and In Vivo Metabolism of α-Amanitin in Rats Using Liquid Chromatography-Quadrupole Time-of-Flight Mass Spectrometric Method” (Molecules, 2022).

One data set in a line: in vivo. Type of data set: in vivo, rat. The protocol: The above developed LC-qTOF-MS method was applied to obtain the PK parameters after IV and PO administration in rat. Most of the PK samples were within the qualified calibration curve, except the 2 min-time point samples in the IV group which were slightly above the upper limit of quantification (ULOQ). Since the calibration curve was linear in the range of quantification, the concentrations of these early time point IV samples have been calculated by extrapolation of the calibration curve which is also applicable for discovery study in pharmaceutical industries. The PK parameters were calculated with the non-compartmental analysis (NCA) using WinNonlin® version 8.1.0 (Certara, Princeton, NJ, USA) and the results are summarized in Table 6.
Animal Male SD rats (320 ± 10 g) were purchased from the Samtako Biokorea co. (Gyeonggi, Republic of Korea) and housed in a group of four units per cage and given standard rodent chow. The rats were fasted overnight with free access to water for 12 h before administration. The formulation was prepared by dissolving α-amanitin in normal saline (NS) and DMSO (4:1, v/v).
The rats with femoral artery and femoral vein cannulation were prepared for the IV administration, and the rats with single femoral artery cannulation were prepared for the PO administration. The cannulated SD rats were given 1 mg/kg of α-amanitin by either IV bolus or PO (n = 4, both). After administration of α-amanitin, blood sample was collected through a femoral artery cannula and transferred into a heparin-containing tube at each sampling time point (IV: 2, 5, 15, 30, 60, 120, 240, 480, and 1440 min after drug administration and PO: 5, 15, 30, 60, 120, 240, 480, and 1440 min after drug administration). Then plasma sample was obtained by centrifuging the blood sample at 13,000 rpm for 5 min. The obtained plasma samples were stored at –20 °C until analysis. After analysis, the PK parameter was calculated using WinNonlin®.

Data set [1] can be described thus: In vitro MetID in CLM and HLM. The following applies: in vitro MetID with GSH in liver microsomes of 5 species. Type of data set: in vitro ADME, cynomolgus monkey, human. The protocol:
Therefore, in vitro and in vivo MetID were conducted to explore any possible different metabolites between the two systems. The in vitro and in vivo MetID samples were analyzed by a LC-qTOF-MS, and the data were used to elucidate a metabolite of α-amanitin using PeakView® and MetabolitePilot™. The structure of the metabolite of α-amanitin was predicted by MetabolitePilot™. The fragmentation pattern of the predicted metabolite ion from product ion scan was compared to the fragmentation pattern of the parent ion using PeakView®.
In vitro MetID was conducted in 5 species (mouse, rat, cynomolgus monkey, dog, and human) of liver microsomes. Cofactors (NADPH solution A and B, 5 mM UDPGA, and 0.5 mM GSH), compound (2 mg/mL of α-amanitin), and DW were mixed and pre-incubated for 5 min at 37 °C. After the pre-incubation, 20 μL of liver microsome (20 mg/mL) was added to 380 μL of cofactor mixture and incubated for 0 and 120 min at 37 °C. After the incubation for each time point, 150 μL of the mixture was transferred to 450 μL of 50% ACN in MeOH for stopping the reaction. Then the mixture was centrifuged at 10,000 rpm for 5 min. Then 550 μL of the supernatant was collected in a fresh E-tube and evaporated for 4 h. After evaporation, samples were reconstituted with 60 μL of 50% MeOH with 5 mM ammonium formate. […]
In general terms: Liver microsomes are vesicles of endoplasmic reticulum, rich in cytochrome P450 enzymes.

Setting [2] is: rat, in vivo, male SD rats, IV bolus 1 mg/kg, plasma, NCA, n = 4.

As usually defined, the AUC(0-t) is exposure summed from dosing to a finite time, without extrapolation to infinity. One may read the clearance as a measure of how efficiently the substance is removed, as volume per time. Higher therefore signals a high capacity for elimination. By half-life is commonly meant the time in which the quantity being followed falls by half. Low values mean fast loss, high ones slow loss. Usually Cmax stands for the peak of the concentration-time curve. For `CC[C@H](C)[C@@H]1NC(=O)CNC(=O)[C@@H]2Cc3c([nH]c4cc(O)ccc34)[S@+]([O-])C[C@H](NC(=O)CNC1=O)C(=O)N[C@@H](CC(N)=O)C(=O)N1C[C@H](O)C[C@H]1C(=O)N[C@@H]([C@@H](C)[C@@H](O)CO)C(=O)N2` [α-amanitin], the “Plasma concentration after PO administration” value in “in vivo” (male SD rats, PO 1 mg/kg, all samples 5-1440 min, n = 4, calibration range 3.05–2220 ng/mL) is on record as “below the LLOQ”. The “In vivo clearance as % of hepatic blood flow” value in “in vivo” (rat, IV 1 mg/kg) is on record as ~30%. Also, the “Bioavailability (in words)” value in the data set “in vivo” (rat, PO 1 mg/kg) is given as “very low bioavailability”. In the data set “in vivo” (setting [2]), this compound had an AUC(0-t) of 1170 ng·h/mL, a clearance of 14 ± 1.3 mL/min/kg and a half-life of 22.3 ± 0.98 min. In “in vivo” (rat, in vivo, male SD rats, IV bolus 1 mg/kg, plasma, NCA, n = 4, 2 min samples extrapolated above ULOQ), the peak concentration (Cmax) is 2290 ± 274 ng/mL. Also, the Vd in the data set “in vivo” (rat, in vivo, male SD rats, IV bolus 1 mg/kg, plasma, NCA, n = 4, read-out: Vss) was 0.409 ± 0.0183 L/kg. In data set [1], the “Reactive metabolites (GSH adducts)” value is on record as “no reactive metabolites with GSH adducts were detected”.
